SMILES strings stand for the structures. Like-named read-outs stand apart in the source and are kept apart here.

Data set [1] relates to AHR-regulated gene CYP1A1. Nature of the data set: In vitro assay 3: AHR-regulated CYP1A1 expression in human cell line (U937, qPCR). (In general: Quantitative PCR measures a nucleic acid by following its amplification.)
Method: In Vitro Assay 3: AHR-Regulated CYP1A1 Expression in Human Cell Line
To assess the AHR inhibitory activity of the substances described in this application, the ability thereof to antagonise ligand-induced AHR gene regulation in a dose-dependent manner was quantified. For this purpose, quantitative PCR analysis was used to determine expression of the AHR-regulated gene CYP1A1 in a human monocytic U937 cell line upon stimulation with 200 μM KA in the presence and absence of AHR inhibitor. U937 cells were sown at a concentration of 2×10^5 cells/well in 100 ul of growth medium (RPMI 1640, 20% FCS) in 96-well microtitre plates. CYP1A1 expression was induced with 200 μM KA (positive control) in the presence or absence of the substances for 6 hours. Human U937 cells were typically incubated with eight different concentrations of the substances (1 nM, 3 nM, 10 nM, 30 nM, 100 nM, 300 nM, 1 μM and 3 μM) and analyzed in duplicate on the same microtitre plate. After stimulation, cells were lysed with Nucleic Acid Lysis Solution (#4305895, Applied Biosystems) and RNA was isolated using the 6100 Nucleic Acid Preparation Station (Applied Biosystems) and reverse-transcribed to cDNA using SuperScript VILO cDNA synthesis kit (#11754-250, Invitrogen). Unstimulated cells were used as the negative control. Taqman probes for human CYP1A1 (Hs01054797_g1) and human HPRT (Hs02800695_m1) were used to analyze fold expression of CYP1A1 of HPRT. Quantitation was performed on a Taqman SDS7900HT.
Data set [2] addresses T1, AHR (Homo sapiens, UniProt P35869).
T1 sequence (P35869 11-848): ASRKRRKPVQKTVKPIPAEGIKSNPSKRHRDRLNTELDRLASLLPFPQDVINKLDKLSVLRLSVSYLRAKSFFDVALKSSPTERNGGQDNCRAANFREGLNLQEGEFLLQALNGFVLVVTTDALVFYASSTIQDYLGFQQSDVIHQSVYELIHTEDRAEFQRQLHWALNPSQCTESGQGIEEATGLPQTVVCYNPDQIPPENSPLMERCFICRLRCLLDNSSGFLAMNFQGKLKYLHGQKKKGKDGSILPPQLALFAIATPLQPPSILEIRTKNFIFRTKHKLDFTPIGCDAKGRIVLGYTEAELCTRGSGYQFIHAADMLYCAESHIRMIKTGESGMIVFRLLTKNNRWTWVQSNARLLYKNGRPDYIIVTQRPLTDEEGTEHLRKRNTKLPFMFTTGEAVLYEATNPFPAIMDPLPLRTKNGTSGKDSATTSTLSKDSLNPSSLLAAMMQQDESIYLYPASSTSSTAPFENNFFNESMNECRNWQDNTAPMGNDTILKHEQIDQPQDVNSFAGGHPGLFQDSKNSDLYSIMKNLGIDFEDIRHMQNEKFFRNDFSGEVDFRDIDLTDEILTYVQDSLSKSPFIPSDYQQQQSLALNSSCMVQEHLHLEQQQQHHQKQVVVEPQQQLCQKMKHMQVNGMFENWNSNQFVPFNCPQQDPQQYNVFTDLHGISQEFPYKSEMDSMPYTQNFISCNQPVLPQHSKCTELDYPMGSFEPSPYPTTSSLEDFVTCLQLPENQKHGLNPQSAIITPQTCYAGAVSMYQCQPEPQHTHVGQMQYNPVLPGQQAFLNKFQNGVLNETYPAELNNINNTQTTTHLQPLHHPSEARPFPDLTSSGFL
Nature of the data set: In vitro assay 1: antagonism in human cell line (transactivation assay, kynurenic acid prestimulated). The following applies: Assay 1: AHR-luc Hum Antagonism IC50 [M], 150 μM kynurenic acid, 20 hours, firefly luciferase.
Method: Transactivation assays were carried out in U87 glioblastoma cells (ATCC) endogenously expressing AHR. In addition the cells were stably transfected with an AHR inducible firefly luciferase reporter gene construct that carried AHR-binding sites (DRE) in its promoter and a renilla reporter gene construct with constitutively active promoter. Kynurenic acid is an endogenous AHR activating ligand and was used to prestimulate test cells prior to testing the antagonistic properties of compounds.
In Vitro Assay 1: Antagonism in Human Cell Line
Cells in medium (tryptophan free RPMI, 1% FCS, 2 mM Glutamine) supplemented with 150 μM kynurenic acid were grown for 20 hours in absence (negative control) or presence of increasing concentrations of test compounds (typical dilutions: 72 pmol/L, 0.25 nmol/L, 0.89 nmol/L; 3.1 nmol/L, 11 nmol/L, 38 nmol/L, 130 nmol/L, 470 nmol/L, 1.6 μmol/L, 5.7 μmol/L and 20 μmol/L in duplicates). As positive inhibition control cells supplemented with 150 μM kynurenic acid were incubated in presence of 5 μM Staurosporin. Normalization was done by positive and negative controls.
Firefly luciferase and Renilla activity was determined by the DualGlo Luciferase Assay System (Promega, #2920).

In data set [3] the target is T1, AHR. Put plainly: In vitro assay 2: agonism in human cell line (transactivation assay).
[4] abbreviates: read-out: Assay 3: Hum CYP1A1 Antagonism IC50, U937 cells, 200 μM KA, 6 hours, qPCR.
Where [5] appears, read: Assay 2: AHR-luc Hum Agonism IC50 [M], no kynurenic acid, 20 hours, firefly luciferase.
Setting [6] is: Homo sapiens, U-937, 6 h, read-out: Assay 3: Hum CYP1A1 Antagonism IC50 [M], U937 cells, 200 μM KA, 6 hours, qPCR.
Where [7] appears, read: read-out: Assay 2: AHR-luc Hum Agonism IC50, no kynurenic acid, 20 hours, firefly luciferase.

For `CC(NC(=O)c1cc(-c2ccc(C(F)(F)F)cc2)nn(-c2cccc(F)c2)c1=O)C(O)C(F)(F)F` (single isomer, unassigned) [Example 270, Isomer no. 3 of 2-(3-fluorophenyl)-3-oxo-N-(4,4,4-trifluoro-3-hydroxybutan-2-yl)-6-[4-(trifluoromethyl)phenyl]-2,3-dihydropyridazine-4-carboxamide], the IC50 in data set [1] (setting [4]) is 5.44e-09 M; in data set [2] it was 6.12e-09 M; in data set [3] (setting [5]) it was more than 2e-05 M.
The corresponding values for `CC(NC(=O)c1cc(-c2ccc(C(F)(F)F)cc2)nn(-c2cccc(F)c2)c1=O)C(O)C(F)(F)F` (single isomer, unassigned) [Example 271, Isomer no. 4 of 2-(3-fluorophenyl)-3-oxo-N-(4,4,4-trifluoro-3-hydroxybutan-2-yl)-6-[4-(trifluoromethyl)phenyl]-2,3-dihydropyridazine-4-carboxamide] are 3.01e-08 M, 2.06e-08 M and more than 2e-05 M.
In the case of `O=C(N[C@@H]1CCCC(F)(F)[C@H]1O)c1cc(-c2ccc(Cl)cc2)nn(-c2cccc(F)c2)c1=O` (single isomer, unassigned) [Example 275, 6-(4-Chlorophenyl)-N-[(trans)-3,3-difluoro-2-hydroxycyclohexyl]-2-(3-fluorophenyl)-3-oxo-2,3-dihydropyridazine-4-carboxamide], the IC50 in data set [1] (setting [6]) was 3.39e-08 M; in data set [2], 1.81e-08 M; in data set [3] (setting [5]) it was more than 2e-05 M.
`O=C(NC(CO)C1CCOC1)c1cc(-c2ccc(Cl)c(F)c2)nn(-c2cccc(F)c2)c1=O` (single isomer, unassigned) [Example 293, 6-(4-Chloro-3-fluorophenyl)-2-(3-fluorophenyl)-N-[2-hydroxy-1-(tetrahydrofuran-3-yl)ethyl]-3-oxo-2,3-dihydropyridazine-4-carboxamide]: the 50% inhibitory concentration (IC50) in data set [1] (setting [6]) was 6.98e-08 M; in data set [2] it was 4.92e-08 M; in data set [3] (setting [7]) it was more than 2e-05 M.
With `C[C@@H](CO)CNC(=O)c1cc(-c2ccc(C(F)(F)F)cc2)nn(-c2cccc(F)c2)c1=O` (single isomer, unassigned) [Example 329], the half-inhibitory concentration (IC50) is 3.22e-08 M in data set [1] (setting [6]), 2.8e-08 M in data set [2] and more than 2e-05 M in data set [3] (setting [5]).
For `O=C(N[C@H]1CC[C@@H]1O)c1cc(-c2ccc(Cl)cc2)nn(-c2cccc(F)c2)c1=O` (single isomer, unassigned) [Example 336, (+)-6-(4-chlorophenyl)-2-(3-fluorophenyl)-N-(trans-2-hydroxycyclobutyl)-3-oxo-2,3-dihydropyridazine-4-carboxamide], the IC50 in data set [1] (setting [6]) is 2e-06 M; in data set [2] it was 4.02e-08 M; in data set [3] (setting [7]), more than 2e-05 M.
Regarding `O=C(N[C@@H]1COC[C@@H]1O)c1cc(-c2ccc(C(F)(F)F)cc2)nn(-c2cccc(F)c2)c1=O` (single isomer, unassigned) [Example 344, (+)-2-(3-fluorophenyl)-N-(cis-4-hydroxytetrahydrofuran-3-yl)-3-oxo-6-[4-(trifluoromethyl)phenyl]-2,3-dihydropyridazine-4-carboxamide], the values for the 50% inhibitory concentration (IC50) in data set [1] (setting [4]), in data set [2] and in data set [3] (setting [5]) were 1.85e-08 M, 5.84e-09 M and more than 2e-05 M, respectively.
As to `O=C(N[C@@H]1COC[C@@H]1O)c1cc(-c2ccc(C(F)(F)F)cc2)nn(-c2cccc(F)c2)c1=O` (single isomer, unassigned) [Example 345, (−)-2-(3-fluorophenyl)-N-(cis-4-hydroxytetrahydrofuran-3-yl)-3-oxo-6-[4-(trifluoromethyl)phenyl]-2,3-dihydropyridazine-4-carboxamide], the figures for the IC50 in data set [1] (setting [4]), in data set [2] and in data set [3] (setting [7]) were 5.4e-08 M, 1.58e-08 M and more than 2e-05 M, respectively.
For `CC(CCO)NC(=O)c1cc(-c2ccc(C(F)(F)F)cc2)nn(-c2cccc(F)c2)c1=O` (single isomer, unassigned; (+)) [Example 254, (+)-2-(3-Fluorophenyl)-N-(4-hydroxybutan-2-yl)-3-oxo-6-[4-(trifluoromethyl)phenyl]-2,3-dihydropyridazine-4-carboxamide], the IC50 is 3.01e-08 M in data set [1] (setting [4]), 1.1e-08 M in data set [2] and more than 2e-05 M in data set [3] (setting [5]).
For `O=C(NCC(O)C(F)F)c1cc(-c2ccc(C(F)(F)F)cc2)nn(-c2cccc(F)c2)c1=O` (single isomer, unassigned; (+)) [Example 328, (+)-N-(3,3-difluoro-2-hydroxypropyl)-2-(3-fluorophenyl)-3-oxo-6-[4-(trifluoromethyl)phenyl]-2,3-dihydropyridazine-4-carboxamide], the half-inhibitory concentration (IC50) was 9.53e-08 M in data set [1] (setting [4]), 4.47e-08 M in data set [2] and more than 2e-05 M in data set [3] (setting [7]).
As to `O=C(NC(CO)C1CCC1)c1cc(-c2ccc(Cl)cc2)nn(-c2cccc(F)c2)c1=O` (single isomer, unassigned; (-)) [Example 211, (−)-6-(4-Chlorophenyl)-N-(1-cyclobutyl-2-hydroxyethyl)-2-(3-fluorophenyl)-3-oxo-2,3-dihydropyridazine-4-carboxamide], the IC50 in data set [1] (setting [6]) was 2.23e-08 M; in data set [2], 1.66e-08 M; in data set [3] (setting [7]) it was more than 2e-05 M.
For `O=C(NCC(O)C(F)F)c1cc(-c2ccc(Cl)cc2)nn(-c2cccc(F)c2)c1=O` (single isomer, unassigned; (-)) [Example 222, (−)-6-(4-Chlorophenyl)-N-(3,3-difluoro-2-hydroxypropyl)-2-(3-fluorophenyl)-3-oxo-2,3-dihydropyridazine-4-carboxamide], the concentration for half-maximal inhibition (IC50) in data set [1] (setting [6]) was 9.14e-08 M; in data set [2] it was 4.87e-08 M; in data set [3] (setting [5]) it was more than 2e-05 M.
`CC(CCO)NC(=O)c1cc(-c2ccc(C(F)(F)F)cc2)nn(-c2cccc(F)c2)c1=O` (single isomer, unassigned; (-)) [Example 255, (−)-2-(3-Fluorophenyl)-N-(4-hydroxybutan-2-yl)-3-oxo-6-[4-(trifluoromethyl)phenyl]-2,3-dihydropyridazine-4-carboxamide]: the values for the IC50 in data set [1] (setting [4]), in data set [2] and in data set [3] (setting [7]) were 3.89e-07 M, 1.09e-07 M and more than 2e-05 M, respectively.
Consider `O=C(NCC(O)C(F)F)c1cc(-c2ccc(C(F)(F)F)cc2)nn(-c2cccc(F)c2)c1=O` (single isomer, unassigned; (-)) [Example 327, (−)-N-(3,3-difluoro-2-hydroxypropyl)-2-(3-fluorophenyl)-3-oxo-6-[4-(trifluoromethyl)phenyl]-2,3-dihydropyridazine-4-carboxamide], for which the 50% inhibitory concentration (IC50) is 1.38e-08 M in data set [1] (setting [4]), 1.66e-08 M in data set [2] and more than 2e-05 M in data set [3] (setting [5]).
As for `CC(C)(O)C(NC(=O)c1cc(-c2ccc(C(F)(F)F)cc2)nn(-c2cccc(F)c2)c1=O)C(F)(F)F` (single isomer, unassigned; (-)) [Example 394, (−)-2-(3-fluorophenyl)-3-oxo-N-(1,1,1-trifluoro-3-hydroxy-3-methylbutan-2-yl)-6-[4-(trifluoromethyl)phenyl]-2,3-dihydropyridazine-4-carboxamide], the results for the IC50 in data set [1] (setting [6]), in data set [2] and in data set [3] (setting [5]) were 9.5e-08 M, 2.8e-08 M and more than 2e-05 M, respectively.
For the compound `Cc1ccc(-c2cc(C(=O)NCC(O)C(C)C)c(=O)n(-c3cccc(F)c3)n2)cc1` (single isomer, unassigned; enantiomer 1) [Example 11, 2-(3-Fluorophenyl)-N-(2-hydroxy-3-methylbutyl)-6-(4-methylphenyl)-3-oxo-2,3-dihydropyridazine-4-carboxamide, enantiomer 1], the IC50 in data set [1] (setting [6]) is 1.71e-07 M; in data set [2], 7.94e-08 M; in data set [3] (setting [5]), more than 2e-05 M.

In general, IC50 refers to the concentration that gives 50% inhibition.
